Values of other authors, collected in patent US20020090388A1, “Intravascular drug delivery device and use therefor” (priority 2000, published 2002).

Tested on: primary pulmonary hypertension
Conditions: patients with primary pulmonary hypertension

## CC#CCC(C)[C@H](O)/C=C/[C@@H]1[C@H]2C/C(=C/CCCC(=O)O)C[C@H]2C[C@H]1O (stereo partly shown) [Iloprost]
  mean level of dose required to provide significant therapeutic benefits: 2.1 ng/kg/min
